# Test results from patent US4994465A, “Antihyperlipidemic and antiatherosclerotic trisubstituted urea compounds” (Warner-Lambert Company, priority 1990, dated 1991).
# pIC50: −log10 of the molar value.
# Molecular target: T1, acyl-CoA:cholesterol acyltransferase (ACAT) (Oryctolagus cuniculus, UniProt G1SFD9)
# T1 construct: a tissue preparation containing rabbit intestinal microsomes; from tissue; host or cells: rabbit intestinal microsomes
# T1 sequence (G1SFD9 1-524): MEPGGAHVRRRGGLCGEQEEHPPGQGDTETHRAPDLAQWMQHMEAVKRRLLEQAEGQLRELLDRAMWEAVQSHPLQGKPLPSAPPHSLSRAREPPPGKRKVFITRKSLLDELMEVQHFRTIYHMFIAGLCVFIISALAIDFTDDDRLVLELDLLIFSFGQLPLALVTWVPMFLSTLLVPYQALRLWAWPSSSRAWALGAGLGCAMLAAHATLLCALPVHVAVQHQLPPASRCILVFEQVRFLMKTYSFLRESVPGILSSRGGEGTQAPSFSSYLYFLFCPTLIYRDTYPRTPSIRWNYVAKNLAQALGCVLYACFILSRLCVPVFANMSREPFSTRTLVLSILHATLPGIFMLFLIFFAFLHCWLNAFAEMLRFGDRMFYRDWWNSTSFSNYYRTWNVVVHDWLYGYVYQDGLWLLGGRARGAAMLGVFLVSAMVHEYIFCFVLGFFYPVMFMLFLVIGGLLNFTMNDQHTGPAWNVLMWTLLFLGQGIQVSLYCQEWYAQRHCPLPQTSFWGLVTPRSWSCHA
# Test: ACAT inhibition in vitro: radiolabeled cholesterol oleate formed from radiolabeled oleic acid in rabbit intestinal microsomes
# Assay type: biochemical
# Details: concentration required to inhibit 50% expression of the enzyme
# Protocol: The ability of representative compounds of the present invention to inhibit ACAT was measured using an in vitro test more fully described in Field, F. J. and Salone, R. G., Biochemica et Biophysica 712:557-570 (1982). The test assesses the ability of a test compound to inhibit the acylation of cholesterol by oleic acid by measuring the amount of radiolabeled cholesterol oleate formed from radiolabeled oleic acid in a tissue preparation containing rabbit intestinal microsomes.
# The data appear in Table 1 where they are expressed in IC50 values; i.e., the concentration of test compound required to inhibit 50% […] of the enzyme.
smiles,measurement,value
"CCCCCCCN(CC(c1ccccc1)c1ccccc1)C(=O)Nc1c(C)cccc1C [Example 12, N'-[(2,6-dimethyl)phenyl]-N-heptyl-N-[(2,2-diphenyl)ethyl]urea]",pIC50,5.89
"O=C(Nc1c(Cl)cccc1Cl)N(Cc1ccccc1)CC1(c2ccccc2)CCCC1 [Example 5, N'-(2,6-dichlorophenyl)-N-benzyl-N-[(1-phenylcyclopentyl)methyl]urea]",pIC50,7.29
"CCCCCCCN(CC1(c2ccccc2)CCCC1)C(=O)Nc1ccc(F)cc1F [Example 11, N'-(2,4-difluorophenyl)-N-heptyl-N-[(1-phenylcyclopentyl)methyl]urea]",pIC50,6.51
"Cc1cccc(C)c1NC(=O)N(Cc1ccccc1)CC1(c2ccccc2)CCCC1 [Example 8, N'-[(2,6-dimethyl)phenyl]-N-benzyl-N-[(1-phenylcyclopentyl)methyl]urea]",pIC50,7.23
"Cc1cc(C)c(NC(=O)N(Cc2ccccc2)CC2(c3ccccc3)CCCC2)c(C)c1 [Example 6, N'-(2,4,6-trimethylphenyl)-N-benzyl-N-[(1-phenylcyclopentyl)methyl]urea]",pIC50,7.10
"CCCCCCCN(CC1(c2ccccc2)CCCC1)C(=O)Nc1c(C(C)C)cccc1C(C)C [Example 9, N'-[2,6-bis(1-methylethyl)phenyl]-N-heptyl-N-[(1phenylcyclopentyl)methyl]urea]",pIC50,6.96
"O=C(Nc1ccc(F)cc1F)N(Cc1ccccc1)CC(c1ccccc1)c1ccccc1 [Example 1, N'-(2,4-difluorophenyl)-N-benzyl-N-[(2,2-diphenyl)ethyl]urea]",pIC50,6.54
CCCCCCCN(CC1(c2ccccc2)CCCC1)C(=O)Nc1c(C)cccc1C [Example 10],pIC50,7.21
"O=C(Nc1ccc(F)cc1F)N(Cc1ccccc1)CC1(c2ccccc2)CCCC1 [Example 4, N'-(2,4-difluorophenyl)-N-benzyl-N-[(1-phenylcyclopentyl)methyl]urea]",pIC50,7.05
"Cc1cccc(C)c1NC(=O)N(Cc1ccccc1)CC(c1ccccc1)c1ccccc1 [Example 2, N'-[(2,6-dimethyl)phenyl]-N-benzyl-N-[(2,2-diphenyl)ethyl]urea]",pIC50,5.86
"CC(C)c1cccc(C(C)C)c1NC(=O)N(Cc1ccccc1)CC(c1ccccc1)c1ccccc1 [Example 3, N'-[2,6-bis(1-methylethyl)phenyl]-N-benzyl-N-[(2,2-diphenyl)ethyl]urea]",pIC50,5.89
"CC(C)c1cccc(C(C)C)c1NC(=O)N(Cc1ccccc1)CC1(c2ccccc2)CCCC1 [Example 7, N'-[2,6-bis(1-methylethyl)phenyl]-N-benzyl-N-[(1-phenylcyclopentyl)methyl]urea]",pIC50,6.77
"CCCCCCCN(CC(c1ccccc1)c1ccccc1)C(=O)Nc1ccc(F)cc1F [Example 13, N'-(2,4-difluorophenyl)-N-heptyl-N-[(2,2-diphenyl)ethyl]urea]",pIC50,6.77
